From US20140018384A1, “QUINOLINONE DERIVATIVES FOR USE IN THE TREATMENT OF AN AUTOIMMUNE DISEASE AND/OR AN INFLAMMATORY DISEASE” (PRONOXIS AB, priority 2011, published 2014)
Like-named read-outs stand apart in the source and are kept apart here.

What was measured:
PLB-985 cells = experiment: ROS production (isoluminol/HRP luminescence) in PLB-985 cells, Biological Example 1; assay type: cell-based
Experimental: (§1) To cells (HL-60 or PLB-985) in HBSS medium was added compound (25 or 50 μM), isoluminol and Horse Radish Peroxidase, fraction II. Luminescence was measured for 10-30 minutes and the area under the […] curve was divided by that from a control experiment to give the activity expressed as fold change.
(§2) Each assay indicated below was performed at a different site, at a different time, by different personnel and/or using different cell lines, concentrations and controls. The cell line, concentration of example compound and control used in respect of each assay were as indicated below. The values obtained from these different setups (each using an otherwise identical assay) are given as Activity A, B, C, D or E in Table 5 below. The values are expressed as fold increase of NADPH activity in the presence of the relevant of compound (as indicated below) compared to the relevant control (as indicated below).
(§3) Activity A: HL-60 cells; 50 μM compound vs. blank Activity B: PLB-985 cells; 25 μM compound vs. blank Activity C, D and E: PLB-985 cells; 25 μM compound vs. DMSO

HL-60 cells = experiment: ROS production (isoluminol/HRP luminescence) in HL-60 cells, Biological Example 1; assay type: cell-based; settings: Homo sapiens, 50 μM compound vs. blank, read-out: Activity A (fold increase of NADPH activity compared to control)
Experimental: as §1, §2, §3

[1] = 25 μM compound vs. DMSO, setup C, read-out: Activity C (fold increase of NADPH activity compared to control)
[2] = 25 μM compound vs. blank, read-out: Activity B (fold increase of NADPH activity compared to control)
[3] = 25 μM compound vs. DMSO, setup D, read-out: Activity D (fold increase of NADPH activity compared to control)

## Cc1ccc(C(=O)c2cn(CC(=O)Nc3ccc(F)cc3)c3cc4c(cc3c2=O)OCO4)cc1C [Example 72, 2-[3-(3,4-Dimethylbenzoyl)-6,7-methylenedioxy-4-oxo-1-quinolinyl]-N-(4-fluorophenyl)acetamide]
PLB-985 cells; [1]
  fold induction at 25 µM: 33.6
PLB-985 cells; [2]
  fold induction at 25 µM: 62.6

## COc1cc(NC(=O)Cn2cc(C(=O)c3ccc(C)c(C)c3)c(=O)c3cc4c(cc32)OCO4)cc(OC)c1 [Example 73, N-(3,5-Dimethoxyphenyl)-2-[3-(3,4-dimethylbenzoyl)-6,7-methylenedioxy-4-oxo-1-quinolinyl]acetamide]
PLB-985 cells; [1]
  fold induction at 25 µM: 17.1
PLB-985 cells; [2]
  fold induction at 25 µM: 15.2

## Cc1ccc(C(=O)c2cn(CC(=O)Nc3ccc4c(c3)OCCO4)c3cc4c(cc3c2=O)OCO4)cc1C [Example 74, 2-[3-(3,4-Dimethylbenzoyl)-6,7-methylenedioxy-4-oxo-1-quinolinyl]-N-(3,4-ethylenedioxyphenyl)-acetamide]
PLB-985 cells; [1]
  fold induction at 25 µM: 20.1
PLB-985 cells; [2]
  fold induction at 25 µM: 38

## COc1cccc(NC(=O)Cn2cc(C(=O)c3ccc(C)c(C)c3)c(=O)c3cc4c(cc32)OCO4)c1 [Example 75, N-m-Anisyl-2-[3-(3,4-dimethylbenzoyl)-6,7-methylenedioxy-4-oxo-1-quinolinyl]acetamide]
PLB-985 cells; [1]
  fold induction at 25 µM: 5.3
PLB-985 cells; [2]
  fold induction at 25 µM: 7.7

## Cc1ccc(C(=O)c2cn(CC(=O)Nc3ccc4c(c3)OCO4)c3cc4c(cc3c2=O)OCO4)cc1C [Example 76, 2-[3-(3,4-Dimethylbenzoyl)-6,7-methylenedioxy-4-oxo-1-quinolinyl]-N-(3,4-methylenedioxyphenyl)-acetamide]
PLB-985 cells; [1]
  fold induction at 25 µM: 23.9
PLB-985 cells; [2]
  fold induction at 25 µM: 43.6

## COc1ccc(C(=O)c2cn(CC(=O)Nc3cccc(OC)c3)c3cc4c(cc3c2=O)OCO4)cc1 [Example 77]
PLB-985 cells; [1]
  fold induction at 25 µM: 2.8

## CCc1ccc(C(=O)c2cn(CC(=O)Nc3ccc4c(c3)OCO4)c3cc4c(cc3c2=O)OCO4)cc1 [Example 78, 2-[3-(4-Ethylbenzoyl)-6,7-methylenedioxy-4-oxo-1-quinolinyl]-N-(3,4-methylenedioxyphenyl)acetamide]
PLB-985 cells; [1]
  fold induction at 25 µM: 11.6

## O=C(Cn1cc(S(=O)(=O)c2ccccc2)c(=O)c2cc3c(cc21)OCO3)Nc1ccccc1 [Example 79, 2-(3-Benzenesulfonyl-6,7-methylenedioxy-4-oxo-1-quinolinyl)-N-phenylacetamide]
PLB-985 cells; [1]
  fold induction at 25 µM: 3.2

## O=C(Cn1cc(S(=O)(=O)c2ccccc2)c(=O)c2cc3c(cc21)OCO3)Nc1ccc(F)cc1 [Example 80, 2-(3-Benzenesulfonyl-6,7-methylenedioxy-4-oxo-1-quinolinyl)-N-(4-fluorophenyl)acetamide]
PLB-985 cells; [1]
  fold induction at 25 µM: 3.2

## O=C(Cn1cc(C(=O)c2ccc(F)cc2)c(=O)c2cc3c(cc21)OCO3)Nc1ccc2c(c1)OCCO2 [Example 81, N-(3,4-Ethylenedioxyphenyl)-2-[3-(4-fluorobenzoyl)-6,7-methylenedioxy-4-oxo-1-quinolinyl]acetamide]
PLB-985 cells; [1]
  fold induction at 25 µM: 22.6

## CCc1ccc(NC(=O)Cn2cc(S(=O)(=O)c3ccccc3)c(=O)c3cc4c(cc32)OCO4)cc1 [Example 82, 2-(3-Benzenesulfonyl-6,7-methylenedioxy-4-oxo-1-quinolinyl)-N-(4-ethylphenyl)acetamide]
PLB-985 cells; [1]
  fold induction at 25 µM: 5.9

## O=C(Cn1cc(S(=O)(=O)c2ccc(F)cc2)c(=O)c2cc3c(cc21)OCO3)Nc1ccc(F)cc1 [Example 83, 2-[3-(4-Fluorobenzenesulfonyl)-6,7-methylenedioxy-4-oxo-1-quinolinyl]-N-(4-fluorophenyl)acetamide]
PLB-985 cells; [1]
  fold induction at 25 µM: 2

## COc1ccc(NC(=O)Cn2cc(S(=O)(=O)c3ccccc3)c(=O)c3cc4c(cc32)OCO4)cc1 [Example 85, N-p-Anisyl-2-(3-benzenesulfonyl-6,7-methylenedioxy-4-oxo-1-quinolinyl)acetamide]
PLB-985 cells; [1]
  fold induction at 25 µM: 12.2

## O=C(Cn1cc(C(=O)c2ccc(F)cc2)c(=O)c2cc3c(cc21)OCO3)Nc1ccc2c(c1)OCO2 [Example 86, 2-[3-(4-Fluorobenzoyl)-6,7-methylenedioxy-4-oxo-1-quinolinyl]-N-(3,4-methylenedioxyphenyl)acetamide]
PLB-985 cells; [1]
  fold induction at 25 µM: 28.3
PLB-985 cells; [2]
  fold induction at 25 µM: 22.7

## COc1ccc(NC(=O)Cn2cc(C(=O)c3ccccc3)c(=O)c3cc4c(cc32)OCO4)cc1 [Example 87, N-p-Anisyl-2-(3-benzoyl-6,7-methylenedioxy-4-oxo-1-quinolinyl)acetamide]
PLB-985 cells; [1]
  fold induction at 25 µM: 27.2

## O=C(Cn1cc(C(=O)c2ccc(Cl)cc2)c(=O)c2cc3c(cc21)OCO3)Nc1ccc2c(c1)OCO2 [Example 88, 2-[3-(4-Chlorobenzoyl)-6,7-methylenedioxy-4-oxo-1-quinolinyl]-N-(3,4-methylenedioxyphenyl)acetamide]
PLB-985 cells; [1]
  fold induction at 25 µM: 31.4

## O=C(Cn1cc(C(=O)c2ccc(F)cc2)c(=O)c2cc3c(cc21)OCO3)Nc1ccc(Cl)cc1 [Example 89, N-(4-Chlorophenyl)-2-[3-(4-fluorobenzoyl)-6,7-methylenedioxy-4-oxo-1-quinolinyl]acetamide]
PLB-985 cells; [1]
  fold induction at 25 µM: 34.4
PLB-985 cells; [3]
  fold induction at 25 µM: 17.1
PLB-985 cells; [2]
  fold induction at 25 µM: 33

## COc1ccc(NC(=O)Cn2cc(C(=O)c3ccc(Cl)cc3)c(=O)c3cc4c(cc32)OCO4)cc1 [Example 90, N-p-Anisyl-2-[3-(4-chlorobenzoyl)-6,7-methylenedioxy-4-oxo-1-quinolinyl]acetamide]
PLB-985 cells; [1]
  fold induction at 25 µM: 37.6
PLB-985 cells; [2]
  fold induction at 25 µM: 40.9

## CCOc1ccc2c(c1)c(=O)c(C(=O)c1ccc(C)cc1)cn2CC(=O)Nc1ccccc1C [Example 91, 2-(6-Ethoxy-4-oxo-3-p-toluoyl-1-quinolinyl)-N-o-tolylacetamide]
HL-60 cells
  fold induction at 50 µM: 5.3

## O=C(Cn1cc(C(=O)c2ccc(Cl)cc2)c(=O)c2cc3c(cc21)OCO3)Nc1ccc(F)cc1 [Example 92, 2-[3-(4-Chlorobenzoyl)-6,7-methylenedioxy-4-oxo-1-quinolinyl]-N-(4-fluorophenyl)acetamide]
HL-60 cells
  fold induction at 50 µM: 8.2

## COc1ccc(NC(=O)Cn2cc(C(=O)c3ccc(F)cc3)c(=O)c3cc4c(cc32)OCO4)c(OC)c1 [Example 93, N-(2,4-Dimethoxyphenyl)-2-[3-(4-fluorobenzoyl)-6,7-methylenedioxy-4-oxo-1-quinolinyl]acetamide]
HL-60 cells
  fold induction at 50 µM: 2.9

## CCOc1ccc(C(=O)c2cn(CC(=O)Nc3ccc(OC)cc3)c3cc4c(cc3c2=O)OCO4)cc1 [Example 94, N-p-Anisyl-2-[3-(4-ethoxybenzoyl)-6,7-methylenedioxy-4-oxo-1-quinolinyl]acetamide]
HL-60 cells
  fold induction at 50 µM: 8.4

## O=C(Cn1cc(S(=O)(=O)c2ccc(F)cc2)c(=O)c2cc3c(cc21)OCO3)Nc1ccccc1 [Example 96, 2-[3-(4-Fluorobenzenesulfonyl)-6,7-methylenedioxy-4-oxo-1-quinolinyl]-N-phenylacetamide]
HL-60 cells
  fold induction at 50 µM: 2.3

## Cc1ccc(C(=O)c2cn(CC(=O)Nc3ccc(F)c(F)c3)c3cc4c(cc3c2=O)OCO4)cc1 [Example 97, N-(3,4-Difluorophenyl)-2-(6,7-methylenedioxy-4-oxo-3-p-toluoyl-1-quinolinyl)acetamide]
HL-60 cells
  fold induction at 50 µM: 6

## CCOc1ccc2c(c1)c(=O)c(C(=O)c1ccc(F)cc1)cn2CC(=O)Nc1ccc(OC)cc1 [Example 102, N-p-Anisyl-2-[6-ethoxy-3-(4-fluorobenzoyl)-4-oxo-1-quinolinyl]acetamide]
PLB-985 cells; [3]
  fold induction at 25 µM: 2.1

## COc1ccc(NC(=O)Cn2cc(C(=O)c3ccccc3)c(=O)c3cc(OC)c(OC)cc32)cc1 [Example 103, N-p-Anisyl-2-(3-benzoyl-6,7-dimethoxy-4-oxo-1-quinolinyl)acetamide]
PLB-985 cells; [3]
  fold induction at 25 µM: 3.7

## COc1ccc(NC(=O)Cn2cc(C(=O)c3ccc(Cl)cc3)c(=O)c3cc(OC)c(OC)cc32)cc1 [Example 104, N-p-Anisyl-2-[3-(4-chlorobenzoyl)-6,7-dimethoxy-4-oxo-1-quinolinyl]acetamide]
PLB-985 cells; [3]
  fold induction at 25 µM: 1.4

## COc1ccc(NC(=O)Cn2cc(C(=O)c3ccc(F)cc3)c(=O)c3cc(OC)c(OC)cc32)cc1 [Example 105, N-p-Anisyl-2-[6,7-dimethoxy-3-(4-fluorobenzoyl)-4-oxo-1-quinolinyl]acetamide]
PLB-985 cells; [3]
  fold induction at 25 µM: 2

## COc1ccc(NC(=O)Cn2cc(C(=O)c3ccc(F)cc3)c(=O)c3cc(F)ccc32)cc1 [Example 106, N-p-Anisyl-2-[6-fluoro-3-(4-fluorobenzoyl)-4-oxo-1-quinolinyl]acetamide]
PLB-985 cells; [3]
  fold induction at 25 µM: 5.6

## COc1ccc(NC(=O)Cn2cc(C(=O)c3ccc(F)cc3)c(=O)c3cc(OC)ccc32)cc1 [Example 107, N-p-Anisyl-2-[3-(4-fluorobenzoyl)-6-methoxy-4-oxo-1-quinolinyl]acetamide]
PLB-985 cells; [3]
  fold induction at 25 µM: 6.6

## COc1ccc(NC(=O)Cn2cc(C(=O)c3ccc(F)cc3)c(=O)c3cc4c(cc32)OCCO4)cc1 [Example 108, N-p-Anisyl-2-[6,7-ethylenedioxy-3-(4-fluorobenzoyl)-4-oxo-1-quinolinyl]acetamide]
PLB-985 cells; [3]
  fold induction at 25 µM: 1.3

## COc1ccc(NC(=O)Cn2cc(C(=O)c3ccc(F)cc3)c(=O)c3cc(Cl)ccc32)cc1 [Example 109, N-p-Anisyl-2-[6-chloro-3-(4-fluorobenzoyl)-4-oxo-1-quinolinyl]acetamide]
PLB-985 cells; [3]
  fold induction at 25 µM: 2.5
